The series is described as follows: Conversion of prodrugs to NDMC in vivo (plasma and brain levels of NDMC by LC-MS/MS after oral dosing).

Procedure: Male, Sprauge-Dawly rats (200-225 grams, Harlan, San Diego, Calif.) implanted with jugular vein cannulae served as experimental subjects. Rats were fasted for approximately 16 hours and then dosed orally with one of several test compounds. All test compounds were administered at a fixed dose of 10 mg/kg (freebase) in a volume of 1 mL/kg. Venous blood samples were collected 0, 30, 60 and 120 min following test compound administration. Samples were placed into heparinized tubes and centrifuged to obtain plasma. Additionally, whole brains were harvested at the 120 min time point in order to determine brain levels of test compounds. Plasma samples, brains and any remaining dosing solutions were stored at −80° C. until analyzed.
The thawed plasma samples were processed by protein precipitation using acetonitrile. Following centrifugation the supernatant was diluted appropriately and transferred to the analysis deep well plate for analysis. […]
Calibration samples and samples were analyzed by LC-MS/MS using positive electrospray ionization. […]
Samples were analyzed using multiple reaction monitoring (MRM). […]
4.0.1 and the area under the curve (AUC0-120) of NDMC was calculated. In vivo conversion to NDMC was calculated from the dose-normalized ratio of AUC0-120 of NDMC following administration of pro-drug and NDMC, respectively.

For `Clc1ccc2c(c1)N=C(N1CCNCC1)c1ccccc1N2` [NDMC, N-desmethylclozapine], the “Plasma AUC(0-120 min) of NDMC” value (male Sprague-Dawley rats, fasted, oral 10 mg/kg (freebase) of compound administered, plasma 0-120 min) was 1.298 µM·h. Besides, the “Mean brain concentration of NDMC at 120 min (SD)” value (rats, oral 10 mg/kg, whole brain at 120 min, n = 3) was 255 (56) nmol/(kg).

Source of the values: patent US20070105836A1, “Prodrugs of muscarinic agonists and methods of treatment of neuropsychiatric disorders” (priority 2005, published 2007).
